Reference: ChEMBL document CHEMBL2440112, “Structure-activity relationships of the aromatic site in novel anticonvulsant pyrrolo[1,2-a]pyrazine derivatives” (Bioorg Med Chem Lett, 2013)
Activity calls are given as the source filed them. No cut-off for these calls is given here.

Columns and labels:
Mus musculus [1] = experiment: Anticonvulsant activity in albino mouse assessed as protection against subcutaneous metrazole-induced seizures at 100 mg/kg, ip after 0.5 hrs; format: functional, organism-based; parameters: dose 100 mg/kg
Mus musculus [2] = experiment: Anticonvulsant activity in albino mouse assessed as protection against maximal electroshock-induced seizures at 100 mg/kg, ip after 4 hrs; format: functional, organism-based; parameters: dose 100 mg/kg
Mus musculus [3] = experiment: Anticonvulsant activity in albino mouse assessed as protection against maximal electroshock-induced seizures at 100 mg/kg, ip after 0.5 hrs; format: functional, organism-based; parameters: dose 100 mg/kg
Mus musculus [4] = experiment: Anticonvulsant activity in albino mouse assessed as protection against subcutaneous metrazole-induced seizures at 100 mg/kg, ip after 4 hrs; format: functional, organism-based; parameters: dose 100 mg/kg
Mus musculus [5] = experiment: Neurotoxicity in albino mouse assessed as minimal motor impairment at 100 mg/kg, ip after 0.5 hrs by rotorod test; format: toxicity, organism-based; parameters: dose 100 mg/kg, route intraperitoneal; settings: in vivo
Mus musculus [6] = experiment: Neurotoxicity in albino mouse assessed as minimal motor impairment at 100 mg/kg, ip after 4 hrs by rotorod test; format: toxicity, organism-based; parameters: dose 100 mg/kg, route intraperitoneal; settings: in vivo
Rattus norvegicus = experiment: Anticonvulsant activity in po dosed albino Sprague-Dawley rat assessed as protection against maximal electroshock-induced seizures after […] to 4 hrs; format: functional, organism-based
Mus musculus [7] = experiment: Anticonvulsant activity in albino mouse assessed as protection against subcutaneous metrazole-induced seizures at 100 mg/kg, ip after 0.25 hrs; format: functional, organism-based; parameters: dose 100 mg/kg
Mus musculus [8] = experiment: Anticonvulsant activity in albino mouse assessed as protection against maximal electroshock-induced seizures at 100 mg/kg, ip after 1 hr; format: functional, organism-based; parameters: dose 100 mg/kg
Mus musculus [9] = experiment: Anticonvulsant activity in albino mouse assessed as protection against maximal electroshock-induced seizures at 100 mg/kg, ip after 0.25 hrs; format: functional, organism-based; parameters: dose 100 mg/kg
Mus musculus [10] = experiment: Anticonvulsant activity in albino mouse assessed as protection against subcutaneous metrazole-induced seizures at 100 mg/kg, ip after 1 hr; format: functional, organism-based; parameters: dose 100 mg/kg
Mus musculus [11] = experiment: Neurotoxicity in albino mouse assessed as minimal motor impairment at 100 mg/kg, ip after 1 hr by rotorod test; format: toxicity, organism-based; parameters: dose 100 mg/kg, route intraperitoneal; settings: in vivo
Mus musculus [12] = experiment: Neurotoxicity in albino mouse assessed as minimal motor impairment at 100 mg/kg, ip after 0.25 hrs by rotorod test; format: toxicity, organism-based; parameters: dose 100 mg/kg, route intraperitoneal; settings: in vivo

Row | Compound | Activity (Mus musculus [1]) | Activity (Mus musculus [2]) | Activity (Mus musculus [3]) | Activity (Mus musculus [4]) | Activity (Mus musculus [5]) | Activity (Mus musculus [6]) | Activity (Rattus norvegicus) | Activity (Mus musculus [7]) | Activity (Mus musculus [8]) | Activity (Mus musculus [9]) | Activity (Mus musculus [10]) | Activity (Mus musculus [11]) | Activity (Mus musculus [12])
1 | O=C1NC(=O)[C@@H]2CCCN2[C@H]1c1cccc2ccccc12 | inactive | inactive | inactive | inactive | Non-toxic | Non-toxic | inactive | – | – | – | – | – | –
2 | COc1cccc([C@H]2C(=O)NC(=O)[C@@H]3CCCN23)c1 | inactive | inactive | Active | inactive | Non-toxic | Non-toxic | inactive | inactive | inactive | Active | inactive | Non-toxic | Non-toxic
3 | O=C1NC(=O)[C@@H]2CCCN2[C@H]1c1ccc2ccccc2c1 | inactive | inactive | inactive | inactive | Non-toxic | Non-toxic | inactive | – | – | – | – | – | –
4 | O=C1NC(=O)[C@@H]2CCCN2[C@H]1c1cccs1 | inactive | inactive | Active | inactive | Non-toxic | Non-toxic | inactive | – | – | – | – | Non-toxic | Toxic
